One block for each molecule: values may come before it. Peptide text beside a SMILES is read from it. * marks the point of attachment. NH(Rh110(N'-COOEt)) = CCOC(=O)Nc1ccc2c(c1)Oc1cc(N*)ccc1C21OC(=O)c2ccccc21
Key:
[1] = target: T1, recombinant human caspase-3 (Homo sapiens, UniProt P42574); experiment: Cleavage of caspase-3 substrates by recombinant human caspase-3; assay type: biochemical; settings: 10 μM or 50 μM substrate, 37° C.
T1 sequence (P42574 29-175 limits assumed): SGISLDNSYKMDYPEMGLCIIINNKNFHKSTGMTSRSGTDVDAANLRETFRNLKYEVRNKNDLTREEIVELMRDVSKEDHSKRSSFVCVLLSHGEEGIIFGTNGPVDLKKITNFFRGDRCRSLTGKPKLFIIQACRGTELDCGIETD
T1 sequence (P42574 176-277 limits assumed): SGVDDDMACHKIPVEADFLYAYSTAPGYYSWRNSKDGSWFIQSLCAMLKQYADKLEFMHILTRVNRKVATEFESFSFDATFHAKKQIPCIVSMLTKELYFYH
Description: (§1) The caspase substrates were assayed by recombinant caspase-3 and by lysates prepared from apoptotic HL-60 cells. The assays were carried out at 37° C. in 96-well plates in a 100 μL incubation containing 30 μL of caspase-3 preparation or cell lysate, 10 μM or 50 μM of the substrate, and caspase assay buffer (40 mM 1,4-piperazinebis(ethansulfonic acid) (PIPES, Aldrich Chemical Company) pH 7.2; 100 mM NaCl; 10% sucrose; 0.1% CHAPS; 1 mM EDTA; 10 mM DTT). At the end of the incubation period, the fluorescence was measured on a Bio-Tek FL500 fluorescence microplate reader using excitation and emission wavelengths of 485 and 530 nm, respectively. Two different controls were run: 1) an enzyme blank consisting of samples containing substrate, but without enzyme or cell lysate; 2) an inhibitor control, consisting of samples which contained the caspase inhibitor, Ac-DEVD-CHO (f.c., 10 μM).

[2] = system: apoptotic HL-60 cell lysates; experiment: Cleavage of caspase-3 substrates by apoptotic HL-60 cell lysates; assay type: biochemical; settings: 10 μM or 50 μM substrate, 37° C., vinblastine treated HL-60 cell lysates
Description: as §1

HL-60 cells [3] = experiment: Staining of apoptotic HL-60 cells by caspase-3 substrate (whole-cell assay, microscopy); assay type: cell-based
Description: (§2) The ability of N-Ac-DEVD-N′-octyloxycarbonyl-R110 SEQ ID NO:5 to detect caspase activation in intact cells was tested using apoptotic HL-60 and Jurkat cells. These whole-cell assays were carried out in two stages: 1) induction of apoptosis; 2) incubation with the substrate. For HL-60 cells, apoptosis was induced by treatment with 10 μg/ml vinblastine for 4 hours. Control samples were treated with DMSO. For Jurkat cells, apoptosis was induced by treatment with 500 ng/ml agonistic antiFas antibody for 2 hours. Control samples were treated with PBS. Following apoptosis induction, the cells were incubated with 50 μM N-Ac-DEVD-N′-octyloxycarbonyl-R110 SEQ ID NO:5 in caspase assay buffer (40 mM PIPES, pH 7.4; 100 mM NaCl; 10% sucrose; 1 mM EDTA; 10 mM DTT). The cells were than transferred to a glass microslide and viewed by epifluorescent illumination on a Nikon inverted microscope.

Jurkat cells [4] = experiment: Staining of apoptotic Jurkat cells by caspase-3 substrate (whole-cell assay, microscopy); assay type: cell-based; settings: 50 μM substrate
Description: as §2

Jurkat cells [5] = experiment: Cleavage of caspase-3 substrate by whole apoptotic Jurkat cells (plate reader); assay type: cell-based
Description: In order to quantitate the cleavage of N-Ac-[…]-N-octyloxycarbonyl-R110 SEQ ID NO:5 by whole cells, an assay was performed in which the fluorescent signal generated from this substrate by apoptotic Jurkat cells was measured in a spectrofluorometric plate reader. Jurkat cells were incubated for varying times in 96-well plates with 500 ng/ml antiFas antibody to induce apoptosis. Control cells were incubated with PBS. At the end of the treatment period, the cells were harvested, centrifuged in 1.5 ml tubes and resuspended in 25 μL of medium containing 1% FBS. 25 μL of caspase buffer containing 50 μM N-Ac-DEVD-N′-octyloxycarbonyl R110 SEQ ID NO:5 was added, and the cells were incubated for one hour. At the end of the incubation period, three 5 μL aliquots from each time point were placed in 96-well plates and the fluorescence was measured at excitation/emission wavelength of 485/530 nm. […] However, cells treated with antiFas gave a detectable fluorescent signal at about one hour after apoptosis induction, and the signal continued to increase up to the 2 hour timepoint, with a signal to background ratio of about 7.

[6] = system: HL-60 cell lysates (aminopeptidases); experiment: Cleavage of aminopeptidase substrate by HL-60 cell lysates (microtiter plate assay); assay type: biochemical; settings: FIG. 6
Description: Aminopeptidases are present in many cells and sequentially remove unblocked amino acid residues from peptides, starting from the N-terminus. Peptides with blocked amino termini are not cleaved. HL-60 lysates were prepared by homogenizing HL-60 cells in caspase buffer, and the ability of these lysates to cleave N-Z-G-N′-octyloxycarbonyl R110 and N-G-N′-octyloxycarbonyl-R110 was tested in a microtiter plate assay.

HL-60 cells [7] = experiment: Uptake and cleavage of aminopeptidase substrate by HL-60 cells; assay type: cell-based; settings: 10 μM substrate, 3 hours at 37° C.; for fluorescence of cells under microscope: FIGS. 7A-B; for Counts/μg protein: excitation 485 nm, emission 525 nm
Description: HL-60 cells were placed in 5 ml of Iscove's medium (without serum or phenol-red) containing 10 μM N-G-N′-octyloxycarbonyl-R110 or 10 μM N-Z-G-N-octyloxycarbonyl-R110. Three million HL-60 cells were incubated for 3 hours at 37° C. in a CO2 incubator, recovered by centrifugation, and washed in 50 μL of ice-cold medium. The cells were re-centrifuged and the final pellet was resuspended in 50 μL of fresh medium. Aliquots of each cell suspension were placed in a microtiter 96-well plate and read on a Wallac 1420 microplate reader with excitation wavelength at 485 nm, emission wavelength at 525 nm. Aliquots of each cell suspension were also placed on microslides and viewed on a Nikon inverted microscope with epifluorescent illumination. […] There was no signal from the cells incubated with 10 μM N-Z-G-N′-octyloxycarbonyl-R110.

[8] = target: T1, recombinant human caspase-3; experiment: Cleavage of caspase-8 substrate by recombinant human caspase-3; assay type: biochemical; settings: 10 μM substrate, 37° C.
Description: (§3) N-Ac-LEVD-N-ethoxycarbonyl R110 SEQ ID NO:9 was assayed by recombinant human caspase-3, 6, 7, and 8. The assays were carried out at 37° C. in 96-well plates in a 100 μL incubation containing recombinant human caspase, 10 μM of N-Ac-LEVD-N′-ethoxycarbonyl R110 SEQ ID NO:9, and caspase assay buffer (40 mM PIPES, pH 7.2; 100 mM NaCl; 10% sucrose; 0.1% CHAPS; 1 mM EDTA; 10 mM DTT). At the end of the incubation period, the fluorescence was determined on a Bio-Tek FL500 fluorescence microplate reader using excitation and emission wavelengths of 485 and 530 nm, respectively. In order to correct for the endogenous fluorescence of the uncleaved substrate, controls were run which consisted of samples containing 10 μM N-Ac-LEVD-N′-ethoxycarbonyl R110 SEQ ID NO:9 without enzyme (“enzyme blanks”). Additional controls included samples containing the caspase inhibitor Ac-DEVD-CHO SEQ ID NO:5. […] Caspase-3 cleaved N-Ac-LEVD-N′-ethoxycarbonyl R110 SEQ ID NO:9 less efficiently, yielding a signal that was about 5-fold above the enzyme blank value.

[9] = target: T2, recombinant human caspase-6 (Homo sapiens, UniProt P55212); experiment: Cleavage of caspase-8 substrate by recombinant human caspase-6; assay type: biochemical; settings: 10 μM substrate, 37° C.
T2 sequence (P55212 24-179 limits assumed): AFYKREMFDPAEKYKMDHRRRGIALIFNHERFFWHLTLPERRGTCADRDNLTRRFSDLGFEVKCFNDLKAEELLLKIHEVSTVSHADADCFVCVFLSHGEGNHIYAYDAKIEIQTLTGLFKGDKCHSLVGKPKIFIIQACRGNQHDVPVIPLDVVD
T2 sequence (P55212 194-293 limits assumed): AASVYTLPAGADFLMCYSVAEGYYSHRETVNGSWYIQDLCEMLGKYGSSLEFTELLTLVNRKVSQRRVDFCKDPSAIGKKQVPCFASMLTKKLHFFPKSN
Description: as §3

[10] = target: T3, recombinant human caspase-7 (Homo sapiens, UniProt P55210); experiment: Cleavage of caspase-8 substrate by recombinant human caspase-7; assay type: biochemical; settings: 10 μM substrate, 37° C.
T3 sequence (P55210 24-198 limits assumed): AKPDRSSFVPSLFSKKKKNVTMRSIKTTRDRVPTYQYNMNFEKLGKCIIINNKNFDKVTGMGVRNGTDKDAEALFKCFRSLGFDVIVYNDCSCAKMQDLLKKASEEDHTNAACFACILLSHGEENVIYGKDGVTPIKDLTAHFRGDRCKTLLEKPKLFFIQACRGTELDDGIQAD
T3 sequence (P55210 207-303 limits assumed): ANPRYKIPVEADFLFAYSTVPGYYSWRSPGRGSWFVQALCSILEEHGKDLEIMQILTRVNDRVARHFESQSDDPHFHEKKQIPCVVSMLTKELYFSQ
Description: as §3

[11] = target: recombinant human caspase-8 (Homo sapiens, UniProt Q14790); experiment: Cleavage of caspase-8 substrate by recombinant human caspase-8; assay type: biochemical; settings: 10 μM substrate, 37° C.
Description: as §3

[12] = Fluorescence and stability of N-acetyl-Rhodamine 110 compared to Rhodamine 110 (fluorometric assay); assay type: physicochemical
Description: The activities of Rhodamine 110 and N-acetyl-Rhodamine 110 as fluorescent moieties for synthetic substrates were measured in a fluorometric assay. The fluorescent signal is read in a spectrofluorometer or in a fluorometric microtiter plate reader at excitation wavelength of 485 and emission 530. Using this assay, the relative fluorescent values were determined for the two fluorescent moieties.
Fluorescence was measured using the following buffer conditions: 100 mM HEPES pH 7.5, with 10% sucrose, 1% CHAPS, 5 mM glutathione, and 1-200 nM test compound. The assay for stability was typically carried out at 37° C. for 2 days.

Sequence of recombinant human caspase-8 (Q14790 217-374 limits assumed): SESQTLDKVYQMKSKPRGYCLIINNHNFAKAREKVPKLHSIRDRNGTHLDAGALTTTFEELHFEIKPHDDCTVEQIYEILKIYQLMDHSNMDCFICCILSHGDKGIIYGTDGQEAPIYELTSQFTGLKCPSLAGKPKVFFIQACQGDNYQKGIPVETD
Sequence of recombinant human caspase-8 (Q14790 385-479 limits assumed): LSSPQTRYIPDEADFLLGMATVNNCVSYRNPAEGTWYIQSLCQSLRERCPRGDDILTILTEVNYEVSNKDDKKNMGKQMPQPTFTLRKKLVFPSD

signal above the enzyme blank value [8]: about 5 fold | signal to background ratio [9]: about 13 | fluorescent signal [10]: virtually no signal | signal to background ratio [11]: about 26
SMILES: CCOC(=O)Nc1ccc2c(c1)Oc1cc(NC(=O)[C@H](CC(=O)O)NC(=O)[C@@H](NC(=O)[C@H](CCC(=O)O)NC(=O)[C@H](CC(C)C)NC(C)=O)C(C)C)ccc1C21OC(=O)c2ccccc21 (stereo partly drawn) [N-Ac-LEVD-N′-ethoxycarbonyl R110, N-(Ac-Leu-Glu-Val-Asp)-N′-ethoxycarbonyl-Rhodamine 110] (Ac-LEVD-{NH(Rh110(N'-COOEt))})

ratio of fluorescent signal (Rhodamine 110/N-acetyl Rhodamine 110) ([12]; after two days incubation at 37° C.): 10.1 | ratio of fluorescent signal (Rhodamine 110/N-acetyl Rhodamine 110) ([12]; time zero, excitation 485, emission 530, HEPES pH 7.5 buffer): 10.2
SMILES: CC(=O)Nc1ccc2c(c1)Oc1cc(N)ccc1C21OC(=O)c2ccccc21 (stereo not drawn) [N-acetyl Rhodamine 110, N-Acetyl-Rhodamine 110]
stability and efficiency as fluorescent indicator ([12]; 37° C. for 2 days): stable and efficient fluorescent indicator

The remaining lines, values behind:

SMILES: CCCCCCCCOC(=O)Nc1ccc2c(c1)Oc1cc(NC(=O)[C@H](CC(=O)O)NC(=O)[C@@H](NC(=O)[C@H](CCC(=O)O)NC(=O)[C@H](CC(=O)O)NC(C)=O)C(C)C)ccc1C21OC(=O)c2ccccc21 (stereo partly drawn) [N-Ac-DEVD-N′-octyloxycarbonyl-R110, N-(Ac-Asp-Glu-Val-Asp)-N′-octyloxycarbonyl-Rhodamine 110]
Cleavage by Caspase-3 [1]: Good | Cleavage by Apoptotic Lysates [2]: Good | staining of vinblastine-treated HL-60 cells (HL-60 cells [3]; 50 μM substrate, apoptosis induced by 10 μg/ml vinblastine for 4 hours): intensely stained | staining of DMSO-treated HL-60 cells (HL-60 cells [3]; 50 μM substrate, control cells): some staining | staining of antiFas-treated Jurkat cells (Jurkat cells [4]; 500 ng/ml agonistic antiFas antibody for 2 hours): intense staining | staining of control Jurkat cells (Jurkat cells [4]; PBS-treated): only light staining | signal to background ratio (Jurkat cells [5]; antiFas-treated Jurkat cells, 2 hour timepoint, 485/530 nm): about 7 | fluorescent signal of PBS-treated cells (Jurkat cells [5]; control Jurkat cells): small fluorescent signal which did not increase

SMILES: Br.CCCCCCCCOC(=O)Nc1ccc2c(c1)Oc1cc(NC(=O)CN)ccc1C21OC(=O)c2ccccc21 (stereo not drawn) [N-G-N′-octyloxycarbonyl-R110, N-Gly-N′-octyloxycarbonyl-Rhodamine-110 HBr]
cleavage by HL-60 cell lysates [6]: readily cleaved | signal from cells (microplate reader) (HL-60 cells [7]): showed signal | fluorescence of cells under microscope (HL-60 cells [7]): showed fluorescence under microscope | Counts/μg protein (HL-60 cells [7]): 12.98 Counts/μg protein

SMILES: CCCCCCCCOC(=O)Nc1ccc2c(c1)Oc1cc(NC(=O)CNC(=O)OCc3ccccc3)ccc1C21OC(=O)c2ccccc21 (stereo not drawn) [N-Z-G-N′-octyloxycarbonyl-R110, N-[Z-Gly]-N′-octyloxycarbonyl-Rhodamine-110]
cleavage by HL-60 cell lysates [6]: no signal was generated | signal from cells (microplate reader) (HL-60 cells [7]): no signal | fluorescence of cells under microscope (HL-60 cells [7]): no fluorescence signal was observed | Counts/μg protein (HL-60 cells [7]): 0 Counts/μg protein

SMILES: CC(=O)N[C@@H](CC(=O)O)C(=O)N[C@@H](CCC(=O)O)C(=O)N[C@H](C(=O)N[C@H](C=O)CC(=O)O)C(C)C [Ac-DEVD-CHO, reference compound]
fluorescent signal of vinblastine-treated HL-60 cells with inhibitor added during the assay stage (HL-60 cells [3]; 50 μM Ac-DEVD-CHO, substrate 50 μM N-Ac-DEVD-N′-octyloxycarbonyl-R110): almost no fluorescent signal

Source: patent US6759207B2, “Fluorogenic or fluorescent reporter molecules and their applications for whole-cell fluorescence screening assays for caspases and other enzymes and the use thereof” (Cytovia, Inc., priority 1997, dated 2004)
